In PubChem BioAssay AID328 (DTP/NCI, 2004):
Several values for one entry are separate records, joined by “and”; a condition that tells them apart may be missing. Equal entries are not always repeated. Inconclusive results and toxic doses are left out.

System: BDF1 mice, P388 leukemia ip, median survival T/C
Test: NCI In Vivo Anticancer Drug Screen. Data for tumor model P388 Leukemia (intraperitoneal) in B6D2F1 (BDF1) mice
Details: endpoint: median survival time, higher = longer survival
Method in brief: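 Antitumour effect was judged in vivo: survival in drug-treated mice, normalised to that of vehicle-dosed controls, gives the reported T/C.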

[1] = dose: 25.0 mg/kg/injection, schedule: Q01DX009 (ip), vehicle: saline with Tween-80
[2] = dose: 50.0 mg/kg/injection, schedule: Q01DX009 (ip), vehicle: saline with Tween-80
[3] = dose: 100.0 mg/kg/injection, schedule: Q01DX009 (ip), vehicle: saline with Tween-80
[4] = dose: 200.0 mg/kg/injection, schedule: Q01DX009 (ip), vehicle: saline with Tween-80
[5] = dose: 12.5 mg/kg/injection, schedule: Q01DX009 (ip), vehicle: Klucel (hydroxypropylcellulose) (HPC)
[6] = dose: 25.0 mg/kg/injection, schedule: Q01DX009 (ip), vehicle: Klucel (hydroxypropylcellulose) (HPC)
[7] = dose: 50.0 mg/kg/injection, schedule: Q01DX009 (ip), vehicle: Klucel (hydroxypropylcellulose) (HPC)
[8] = dose: 50.0 mg/kg/injection, schedule: Q04DX003 (ip), vehicle: saline
[9] = dose: 100.0 mg/kg/injection, schedule: Q04DX003 (ip), vehicle: saline
[10] = dose: 50.0 mg/kg/injection, schedule: Q04DX003 (ip), vehicle: saline with Tween-80
[11] = dose: 100.0 mg/kg/injection, schedule: Q04DX003 (ip), vehicle: saline with Tween-80
[12] = dose: 25.0 mg/kg/injection, schedule: Q01DX009 (ip), vehicle: saline
[13] = dose: 50.0 mg/kg/injection, schedule: Q01DX009 (ip), vehicle: saline
[14] = dose: 100.0 mg/kg/injection, schedule: Q01DX009 (ip), vehicle: saline
[15] = dose: 200.0 mg/kg/injection, schedule: Q04DX003 (ip), vehicle: saline with Tween-80
[16] = dose: 100.0 mg/kg/injection, schedule: Q04DX003 (ip), vehicle: Klucel (hydroxypropylcellulose) (HPC)
[17] = dose: 400.0 mg/kg/injection, schedule: Q04DX003 (ip), vehicle: Klucel (hydroxypropylcellulose) (HPC)

CCOC(=O)CCC(NC(=O)c1cc(Cl)c(N(C)S(=O)(=O)c2ccc(C)cc2)cc1Cl)C(=O)OCC (stereo not drawn)
T/C (dose: 25.0 mg/kg/injection, schedule: Q01DX001 (ip), vehicle: saline sonified): 109 % of control
T/C (dose: 50.0 mg/kg/injection, schedule: Q01DX001 (ip), vehicle: saline sonified): 104 % of control
T/C (dose: 100.0 mg/kg/injection, schedule: Q01DX001 (ip), vehicle: saline sonified): 104 % of control

NC(=O)Nc1cc(NC(N)=O)cc(N(CCO)CCO)c1
T/C (dose: 50.0 mg/kg/injection, schedule: Q01DX009 (ip), vehicle: water): 94 % of control
T/C (dose: 100.0 mg/kg/injection, schedule: Q01DX009 (ip), vehicle: water): 102 % of control
T/C (dose: 100.0 mg/kg/injection, schedule: Q04DX003 (ip), vehicle: water): 118 % of control
T/C (dose: 200.0 mg/kg/injection, schedule: Q01DX009 (ip), vehicle: water): 96 % of control
T/C (dose: 200.0 mg/kg/injection, schedule: Q04DX003 (ip), vehicle: water): 102 % of control
T/C (dose: 400.0 mg/kg/injection, schedule: Q01DX009 (ip), vehicle: water): 100 % of control
T/C (dose: 400.0 mg/kg/injection, schedule: Q04DX003 (ip), vehicle: water): 102 % of control

Nc1ccc(S(=O)(=O)N/N=C/c2ccccc2Cl)cc1
T/C (dose: 12.5 mg/kg/injection, schedule: Q01DX009 (ip), vehicle: saline with Tween-80): 96 % of control
T/C [1]: 96 % of control
T/C [2]: 92 % of control

O=C1CCCCCCCCCCC1Cc1cc(O)c(CC2CCCCCCCCCCC2=O)cc1O (stereo not drawn)
T/C [2]: 96 % of control
T/C [3]: 94 % of control
T/C [4]: 100 % of control

BrCC1CCCO1 (stereo not drawn)
T/C [1]: 101 % of control
T/C [2]: 110 % of control

C=C(C)C(=O)O[C@H]1C[C@@]23O[C@@H]2CCC(=C[C@H]2OC(=O)C(=C)[C@H]12)COC3O (stereo partly drawn)
T/C (dose: 9.37 mg/kg/injection, schedule: Q01DX009 (ip), vehicle: saline): 108 % of control
T/C (dose: 18.75 mg/kg/injection, schedule: Q01DX009 (ip), vehicle: saline): 104 % of control
T/C (dose: 18.75 mg/kg/injection, schedule: Q04DX003 (ip), vehicle: saline): 113 % of control
T/C (dose: 37.5 mg/kg/injection, schedule: Q04DX003 (ip), vehicle: saline): 95 % of control

C[P+](c1ccc(F)cc1)(c1ccc(F)cc1)c1ccc(F)cc1
T/C [5]: 86 % of control
T/C [6]: 104 % of control
T/C (dose: 25.0 mg/kg/injection, schedule: Q04DX003 (ip), vehicle: Klucel (hydroxypropylcellulose) (HPC)): 104 % of control
T/C [7]: 109 % of control
T/C (dose: 50.0 mg/kg/injection, schedule: Q04DX003 (ip), vehicle: Klucel (hydroxypropylcellulose) (HPC)): 90 % of control

CCCCCCC(=O)O[C@H]1CC[C@H]2[C@@H]3CCC4=CC(=O)CC[C@]4(C)[C@H]3CC[C@]12C
T/C (dose: 25.0 mg/kg/injection, schedule: Q01DX009 (ip), vehicle: other): 120 % of control
T/C (dose: 25.0 mg/kg/injection, schedule: Q04DX003 (ip), vehicle: other): 100 % of control
T/C (dose: 50.0 mg/kg/injection, schedule: Q01DX009 (ip), vehicle: other): 100 % of control
T/C (dose: 50.0 mg/kg/injection, schedule: Q04DX003 (ip), vehicle: other): 100 % of control
T/C (dose: 66.0 mg/kg/injection, schedule: Q01DX009 (ip), vehicle: other): 100 % of control
T/C (dose: 100.0 mg/kg/injection, schedule: Q01DX009 (ip), vehicle: other): 100 % of control
T/C (dose: 100.0 mg/kg/injection, schedule: Q04DX003 (ip), vehicle: other): 100 % of control
T/C (dose: 150.0 mg/kg/injection, schedule: Q01DX009 (ip), vehicle: other): 90 % of control

NNc1nc2c(N)ncnc2n1C1OC(CO)C(O)C1O (stereo not drawn)
T/C [8]: 108 % of control
T/C [9]: 115 % of control
T/C (dose: 200.0 mg/kg/injection, schedule: Q04DX003 (ip), vehicle: saline): 101 % of control
T/C (dose: 400.0 mg/kg/injection, schedule: Q04DX003 (ip), vehicle: saline): 116 % of control

CN(C)c1ccc(/C=C/c2ccc3ccccc3[n+]2[O-])cc1
T/C [2]: 99 % of control
T/C [3]: 97 % of control
T/C [4]: 117 % of control

O=C(COc1ccc(Cl)cc1Cl)Oc1c(Cl)c(Cl)c(Cl)c(Cl)c1Cl
T/C [10]: 91 % of control
T/C [11]: 87 % of control

CN=C1N[N+]2=C(C)CCCC2(C)S1 (stereo not drawn)
T/C [12]: 100 % of control
T/C [13]: 103 % of control
T/C [14]: 99 % of control

COc1cc2c(c(OC)c1OC)CC1c3c(cc4c(c3-2)OCO4)CCN1C (stereo not drawn)
T/C (dose: 37.5 mg/kg/injection, schedule: Q01DX009 (ip), vehicle: Klucel (hydroxypropylcellulose) (HPC)): 98 % of control
T/C (dose: 75.0 mg/kg/injection, schedule: Q01DX009 (ip), vehicle: Klucel (hydroxypropylcellulose) (HPC)): 102 % of control
T/C (dose: 150.0 mg/kg/injection, schedule: Q01DX009 (ip), vehicle: Klucel (hydroxypropylcellulose) (HPC)): 124 % of control

NC(=S)N/N=C/c1ccc(N)cn1
T/C (dose: 3.13 mg/kg/injection, schedule: Q01DX009 (ip), vehicle: saline with Tween-80): 160 % of control
T/C (dose: 6.25 mg/kg/injection, schedule: Q01DX009 (ip), vehicle: saline with Tween-80): 172 % of control and 211 % of control

CCCCCCOC(=O)C(O)c1ccccc1 (stereo not drawn)
T/C [10]: 109 % of control
T/C [11]: 95 % of control
T/C [15]: 95 % of control
T/C (dose: 400.0 mg/kg/injection, schedule: Q04DX003 (ip), vehicle: saline with Tween-80): 100 % of control

CCOP(=S)(OCC)Sc1cnn(C)c(=O)c1SCC
T/C (dose: 50.0 mg/kg/injection, schedule: Q01DX005 (ip), vehicle: saline with Tween-80): 100 % of control
T/C (dose: 100.0 mg/kg/injection, schedule: Q01DX005 (ip), vehicle: saline with Tween-80): 99 % of control
T/C (dose: 200.0 mg/kg/injection, schedule: Q01DX005 (ip), vehicle: saline with Tween-80): 100 % of control

c1ccc2c(c1)CCc1cc3c(nc1-2)-c1ccccc1CC3
T/C [16]: 112 % of control
T/C [17]: 112 % of control

O=C(O)c1ccc([N+](=O)[O-])s1
T/C [2]: 90 % of control
T/C [3]: 95 % of control
T/C [11]: 110 % of control
T/C [15]: 100 % of control

O=C1NC(=O)C2C3C(C(O)(c4ccccc4)c4ccccn4)=CC(/C3=C(\c3ccccc3)c3ccccn3)C12 (stereo not drawn)
T/C [5]: 100 % of control
T/C [6]: 113 % of control
T/C [7]: 86 % of control
T/C [16]: 109 % of control
T/C (dose: 200.0 mg/kg/injection, schedule: Q04DX003 (ip), vehicle: Klucel (hydroxypropylcellulose) (HPC)): 100 % of control
T/C [17]: 100 % of control

c1cc2cccc3c2c(c1)c1sc2c4cccc5cccc(c54)c2c31
T/C [11]: 91 % of control
T/C [15]: 100 % of control

COc1cc2cc3c4ccccc4cc[n+]3c(C)c2cc1OC (tested in a mixture with another compound)
T/C (dose: 5.0 mg/kg/injection, schedule: Q04DX003 (ip), vehicle: saline): 101 % of control
T/C (dose: 20.0 mg/kg/injection, schedule: Q01DX009 (ip), vehicle: saline): 109 % of control
T/C (dose: 40.0 mg/kg/injection, schedule: Q01DX009 (ip), vehicle: saline): 104 % of control
T/C (dose: 80.0 mg/kg/injection, schedule: Q04DX003 (ip), vehicle: saline): 109 % of control

COC(=O)CCCNC(=O)/C=C1/c2cc(OC)c(OC)cc2CCC1S(=O)(=O)OC (stereo not drawn)
T/C [14]: 104 % of control
T/C (dose: 200.0 mg/kg/injection, schedule: Q01DX009 (ip), vehicle: saline): 90 % of control
T/C (dose: 400.0 mg/kg/injection, schedule: Q01DX009 (ip), vehicle: saline): 100 % of control

O=C(NCCCl)OCC(F)(F)F
T/C (dose: 50.0 mg/kg/injection, schedule: Q01DX005 (ip), vehicle: Klucel (hydroxypropylcellulose) (HPC)): 113 % of control
T/C (dose: 100.0 mg/kg/injection, schedule: Q01DX005 (ip), vehicle: Klucel (hydroxypropylcellulose) (HPC)): 97 % of control
T/C (dose: 200.0 mg/kg/injection, schedule: Q01DX005 (ip), vehicle: Klucel (hydroxypropylcellulose) (HPC)): 108 % of control

Cn1c(=O)c2[nH]c(CCCc3nc4c([nH]3)c(=O)n(C)c(=O)n4C)nc2n(C)c1=O
T/C [12]: 90 % of control
T/C [13]: 89 % of control
T/C [8]: 100 % of control
T/C [14]: 96 % of control and 122 % of control
T/C [9]: 108 % of control
